These results are taken from patent publication US20250041307A1, “Uses of Bicyclic Compounds for the Treatment of Diseases” (Athira Pharma, Inc., priority 2021, published 2025).

Usually Papp stands for the rate of passage across a membrane or cell layer, normalised by area and donor concentration.

Structures are written as SMILES. Some results are limits rather than exact numbers.

One data set concerns HGF/MET system. In words: Phospho-MET ELISA. Format: cell-based. The note with it: HEK293 cells; with 1 ng/mL recombinant HGF; 15 minutes; augmentation of MET phosphorylation (pMET ELISA). More on the design: key: − indicates that the compound failed to significantly augment MET phosphorylation; + indicates maximum potency at or above 100 nM; ++ indicates maximum potency at or above 10 nM; +++ indicates maximum potency at or above 1 nM; ++++ indicates maximum potency at or above 0.1 nM. The procedure: Compounds were screened for potency towards the HGF/MET system using phospho-MET (pMET) ELISA kits (Cell Signaling). pMET levels were detected in samples having low (1 ng/mL) and high (10 ng/mL) concentrations of HGF.
HEK293 cells were prepared by passage into 6-well multi-plates and grown at 37° C. at 5% CO2 in DMEM+10% FBS until approximately 90% confluent. Cells were then starved for at least 8 hours in serum-free growth media.
Exemplary compounds were prepared in DMEM+0.1% FBS, diluted and added to treatment media with 1 ng/mL recombinant HGF protein (R&D Systems). Cells were incubated in triplicate at 37° C. and 5% CO2 for 15 minutes. Samples were then treated with 180 μL ice-cold RIPA (radioimmunoprecipitation assay) buffer and cells were lysed on ice for 15 minutes. Lysates were cleared by centrifugation at 16,000-g for 15 minutes and the supernatant was retained. Samples were normalized using a BCA assay of lysates to determine protein concentrations across the samples.
Between 50 and 100 μg total protein lysate was loaded into ELISA wells in pMET Sandwich ELISA kit (Cell Signaling Catalog #7227C), ensuring equal protein load in each well. The ELISA was processed according to manufacturer's instructions. After color developed, absorbance was read on an optical plate reader at 450 nm.
Potency measurements were determined using peak efficacy by scaling test compound dose treatments along a scale of 1-10 between 1 ng/mL and 10 ng/mL HGF doses according to the following formula: […]
where y is the normalized data-point, x is the raw data point, A is the mean HGF at 1 ng/mL, and B is the mean HGF at 10 ng/mL.
In general terms: In an ELISA, binding on a coated surface is turned into a signal by an enzyme label.

The next data set relates to MDCK cells. In words: Cell scattering behavior assay. Conditions: with 5 ng/mL HGF, 24 hours, normalized particle count compared to HGF treatment alone. The class given is cell-based. More on the design: key: − indicates that the compound failed to significantly promote cell scattering behavior; + indicates maximum potency at or above 100 nM; ++ indicates maximum potency at or above 10 nM; +++ indicates maximum potency at or above 1 nM; ++++ indicates maximum potency at or above 0.1 nM. The procedure:
MDCK cells were grown under normal conditions and observed to spontaneously form tight colonies as they proliferate. MDCK cells respond to HGF treatment by moving away from each other (scattering), which is quantified to assess the amount of HGF/MET activation in the cell population. In this experiment, MDCK cells were plated in a 96-well format, treated with HGF and exemplary compounds, fluorescently stained, imaged in large fields, and scattering behavior was quantified. Quantification was determined by analyzing the number of continuous groups of cells compared to the total stained area imaged (normalized particle counts).
MDCK cells were plated at low density in black-walled imaging plates and allowed to attach overnight at 37° C. and 5% CO2 in DMEM+10% FBS. Cells were then starved to 2 hours in DMEM without FBS (“starve media”). Samples containing exemplary compounds were prepared in DMEM without FBS and included 5 ng/mL HGF protein (“treatment media”). A control curve was also prepared for each plate using HGF concentrations of 0, 5, 10, and 20 ng/mL. Starve media was replaced with treatment media and cells were incubated for 24 hours at 37° C. and 5% CO2.
After incubation, cells were fixed by replacing treatment media with cold ethanol and incubating for 20 minutes at 4° C. Cells were then rehydrated by washing with PBS and then with stain solution (fluorescent wheat germ agglutinin; WGA488 at 20 μg/mL in PBS). Cells were incubated with stain solution 30 minutes at room temperature after which stain solution was replaced with fresh PBS.
Fields of cells were imaged using an iCyte high content imager in the green wavelength. Images were converted to binary and analyzed for particle size and particle count. For the purpose of analysis, an individual cell touching no other cells or separated colonies of cells were identified as particles, and particle counts were normalized by the total signal area to account for differences in cell number. […] Compound potency was assessed by statistical increase in normalized particle count compared to HGF treatment alone.

Data set [1] in a line: Parallel artificial membrane permeability assay (PAMPA). Format: in vitro ADME. Conditions: PBS, room temperature for 5 hours, 200 uM in donor well. The procedure: Bioavailable drugs must permeate the cellular membranes of the lining of the digestive tract. To estimate the penetrability of exemplary compounds, the in vitro parallel artificial membrane permeability assay (PAMPA) was utilized.
Test compounds must have a standard curve in the final read plate to determine partitioned concentration of each drug. A 6-point standard curve was prepared for each compound from 0 to 200 μM in phosphate-buffered saline (PBS).
Test compound solution (300 μL in PBS) was added to the donor (bottom) well of the PAMPA plate in 5 replicates and PBS vehicle (200 μL) was added to the acceptor (top) wells of appropriate wells to match the loading of the donor plate. The bottom and top of the PAMPA plates were then sandwiched together. The PAMPA plates were then incubated at room temperature for 5 hours. After incubation, 150 μL of donor solution was added to a UV compatible plate containing the corresponding standard curve. 150 μL of acceptor well solution was added adjacent to the corresponding standard curve and donor well samples for that compound. The plate was then read using a UV plate reader.
Permeability and membrane retention were then calculated based on the following formulas:
where: • A=filter area (0.3 cm^2); • VD=donor well volume (0.3 mL); • VA=acceptor well volume (0.2 mL); • t=incubation time (seconds); • CA(t)=compound concentration in acceptor well at time t; • CD(t)=compound concentration in donor well at time t; and
where: • CD(t), VD, CA(t), and VA are as defined for equation 1, and • C0=initial concentration in donor well (200 uM).
(PAMPA measures passive passage across an artificial lipid membrane.)

Data set [2] relates to hepatocyte (HepG2) cell cultures. The data set can be described thus: Cytotoxicity assay (LDH release). Format: cell-based. The note with it: HepG2 cells, 48 hours, 0.1 to 100 μM. The procedure:
This experiment was designed to obtain a preliminary assessment of cytotoxicity.
HepG2 cells were plated in 96-well cell culture plates and allowed to attach overnight at 37° C., 5% CO2 in EMEM+10% FBS. Treatments were made in complete media (EMEM+10% FBS) and included a dilution series of test compounds from 0.1 to 100 μM. Known cytotoxin cerivastatin was used as a positive assay control and prepared at a final concentration of 0.5 μM.
Growth media was replaced with treatment media (EMEM+10% FBS containing test compound dissolved in DMSO) and cells were incubated with test compounds for 48 hours. At the end of the incubation period, supernatant media from each well was transferred to a new plate and LDH assay working solution was added. LDH assay solution undergoes a colorimetric reaction in proportion to the amount of lactate dehydrogenase (an intracellular protein that was only found in the media in the presence of lysed cells) in the media. Color reaction was quantified by measurement of absorbance at a wavelength of 490 nm.
The signal range of the assay was determined by no manipulation in a negative control treatment and full lysis of all cells in a lysis control sample. Compounds that increase the level of cytotoxicity more than 20% above negative control samples were considered cytotoxic in this assay.

A short description of data set [3]: In vitro stability in simulated gastric and intestinal fluids. The class given is in vitro ADME. Conditions: 37° C. The procedure:
(§1) Bioavailability can be estimated by compound stability when exposed to conditions in the body. As an initial assessment of stability properties in a variety of conditions present in animals, exemplary compounds were tested for stability in a battery of simulated body compartments. Compounds were tested for stability in the following solutions: simulated gastric fluid (SGF: 34.2 mM NaCl, pH 1.2), simulated gastric fluid with the digestive enzyme pepsin (SGF+Enzyme: SGF with 3.2 mg/ml pepsin), simulated intestinal fluid with the mixture of enzymes in porcine pancreatin (SIF+Enzyme: 28.7 mM NaH2PO4, 105.7 mM NaCl, pH 6.8, 10 mg/ml pancreatin), rat plasma, and human plasma.
(§2) Test compounds were incubated at a final concentration of 5 μM in the above solutions at 37° C. with samples removed at the following time points: 0, 1, 2, and 4 hours. Reactions were stopped and prepared for quantification by addition of excess quench solution containing an internal standard (acetonitrile, 200 ng/mL bucetin). Test compound and internal standard in each sample was quantified by LC-MS/MS, and after internal normalization to bucetin, test compound concentration was expressed as a percentage of concentration at the 0-hour time point. Stability in the relevant test solution was then determined by the percent remaining at the 4-hour time point.

A short description of data set [4]: In vitro stability in rat plasma. The class given is in vitro ADME. The note with it: 5 μM, 37° C. The procedure:
as §1, §2

Data set [5] can be described thus: In vitro stability in human plasma. Format: in vitro ADME. Conditions: 5 μM, 37° C. The procedure:
as §1, §2

Data set [6] can be described thus: In vivo tissue distribution. More on the design: species or system Sprague-dawley rats. The note with it: rat, 10 minutes post administration. The procedure: The rate of distribution to target tissues is an important feature of therapeutic molecules. Tissue distribution of exemplary compounds was performed in mixed-sex Sprague-dawley rats. Test compounds were delivered via tail vein injection (IV) and tissues were collected at Tmax (10 minutes post administration). Animals were deeply anesthetized with isoflurane and whole blood was collected from the right atrium and processed by centrifugation to produce plasma. Animals were then fully perfused with PBS administered to the left ventricle to prevent blood contamination of tissues.
Tissues were collected and homogenized, and compound content in the target tissue was quantified by LC-MS/MS. Tissue distribution rates were determined by dividing the tissue concentration of compound by the plasma concentration and multiplying by 100.

In the case of `CCC(C)N1CC2N(Cc3ccc(O)cc3)CCC(=O)N2CC1=O` (centres unmarked) [Compound 9], the Potency entry in the data set on HGF/MET system and in the data set with MDCK cells was “−” each time. The Papp at 5 h, 200 uM in data set [1] was > 2 ×10⁻⁶ cm/s. For the same molecule, the Cytotoxicity entry in data set [2] is recorded as “++++ (++++ indicates non-toxic at 100 μM)”.
On to `CCC(C)CN1CC2N(Cc3ccc(F)cc3)CCC(=O)N2C(C)C1=O` (centres unmarked) [Compound 42], for which the Potency result with HGF/MET system was “++++ (++++ indicates maximum potency at or above 0.1 nM)”; in the data set with MDCK cells it was “+++ (+++ indicates maximum potency at or above 1 nM)”. Moreover, the Papp at 5 h, 200 uM in data set [1] is > 2 ×10⁻⁶ cm/s. For the same molecule, in data set [2], the Cytotoxicity result is “++++ (++++ indicates non-toxic at 100 μM)”.
For the molecule `CC1C(=O)N(CCC2CCC2)CC2N(Cc3ccc(C(F)(F)F)c(Cl)c3)CCC(=O)N12` (centres unmarked) [Compound 51], the Potency result in the data set with HGF/MET system and with MDCK cells was “+++ (+++ indicates maximum potency at or above 1 nM)” each time. Moreover, the Papp at 5 h, 200 uM in data set [1] is < 2 ×10⁻⁶ cm/s. For the same molecule, the Cytotoxicity result in data set [2] is reported as “+++ (+++ indicates non-toxic at 10 μM)”.
`CC1C(=O)N(CC2CCC2)CC2N(C(=O)c3ccc(OC(F)F)cc3)CCC(=O)N12` (centres unmarked) [Compound 14]: the Potency entry in the data set on HGF/MET system is “++++ (++++ indicates maximum potency at or above 0.1 nM)”. In addition, the Papp at 5 h, 200 uM in data set [1] is > 2 ×10⁻⁶ cm/s. Also, the Cytotoxicity result in data set [2] was “++++ (++++ indicates non-toxic at 100 μM)”. In addition, the “SGF, compound remaining after 4 hours” value in data set [3] (simulated gastric fluid pH 1.2, 5 μM) was “++ (++ indicates 40-79% compound remaining after 4 hours)”. For the same molecule, the “SGF + Enz, compound remaining after 4 hours” value in data set [3] (simulated gastric fluid with 3.2 mg/ml pepsin, 5 μM) is listed as “++ (++ indicates 40-79% compound remaining after 4 hours)”. Further, the “SIF, compound remaining after 4 hours” value in data set [3] (simulated intestinal fluid pH 6.8 with 10 mg/ml pancreatin, 5 μM) is reported as “+++ (+++ indicates 80-99% compound remaining after 4 hours)”. The “Rat Plasma, compound remaining after 4 hours” value in data set [4] was “+++ (+++ indicates 80-99% compound remaining after 4 hours)”. The “Human Plasma, compound remaining after 4 hours” value in data set [5] is listed as “+++ (+++ indicates 80-99% compound remaining after 4 hours)”. Moreover, the “Tissue Distribution (% Plasma exposure at 10 min post IV dose) Brain” value in data set [6] (brain) was “++ (++ indicates distribution between 5 and 39%)”. In data set [6] (cerebellum), the “Tissue Distribution (% Plasma exposure at 10 min post IV dose) Cerebellum” value is “++ (++ indicates distribution between 5 and 39%)”. Also, the “Tissue Distribution (% Plasma exposure at 10 min post IV dose) Cortex” value in data set [6] (cortex) is “++ (++ indicates distribution between 5 and 39%)”. Besides, the “Tissue Distribution (% Plasma exposure at 10 min post IV dose) Hippocampus” value in data set [6] (hippocampus) is “++ (++ indicates distribution between 5 and 39%)”. In data set [6] (sciatic nerve), the “Tissue Distribution (% Plasma exposure at 10 min post IV dose) Sciatic Nerve” value is “++ (++ indicates distribution between 5 and 39%)”.
Regarding `CCC(C)CN1CC2N(Cc3ccc(OC(F)F)cc3)CCC(=O)N2C(CC(=O)O)C1=O` (centres unmarked) [Compound 49, 2-(1-(4-(difluoromethoxy)benzyl)-8-(2-methylbutyl)-4,7-dioxooctahydro-2H-pyrazino[1,2-a]pyrimidin-6-yl)acetic acid], the Potency entry with HGF/MET system and in the data set on MDCK cells was “++++ (++++ indicates maximum potency at or above 0.1 nM)” throughout. Further, in data set [1], the Papp at 5 h, 200 uM is > 2 ×10⁻⁶ cm/s. The Cytotoxicity result in data set [2] is given as “++++ (++++ indicates non-toxic at 100 μM)”.
